Structures are written as SMILES.

The first assay has as its system Stellaria media. Description: Pre-emergence herbicidal effect against STEME. The class given is in vivo. Conditions: 1280 g/ha, visual score after 3 weeks, 100% = plants have died, 0% = like control plants. The source says: (§1) 1. Pre-emergence herbicidal effect and crop plant compatibility Seeds of monocotyledonous and dicotyledonous weed plants and crop plants are laid out in sandy loam soil in wood-fibre pots and covered with soil. The compounds of the invention, formulated in the form of wettable powders (WP) or as emulsion concentrates (EC), are then applied to the surface of the covering soil as aqueous suspension or emulsion at a water application rate equating to 600 to 800 L/ha with addition of 0.2% wetting agent. After the treatment, the pots are placed in a greenhouse and kept under good growth conditions for the trial plants. The damage to the test plants is scored visually after a test period of 3 weeks by comparison with untreated controls (herbicidal activity in percent (%): 100% activity=the plants have died, 0% activity=like control plants). [table]
For `COC(=O)CNC(=O)CSc1nn(-c2ccccc2F)c(-c2ccc(F)c(F)c2)c1Cl` [VII-001], the “Pre-emergence action against STEME” value is recorded as 100%.
On the same count and under the same terms, under `COC(=O)CNC(=O)CSc1nn(-c2ccccc2F)c(-c2ccccc2)c1Br` [VII-005] stands 100%.

In a further assay the test system is Bassia scoparia. The assay is described as follows: Post-emergence herbicidal effect against KCHSC. The class given is in vivo. The note with it: 1280 g/ha, visual assessment about 3 weeks after treatment, 100% = plants have died, 0% = like control plants. The procedure: (§2) [table] 2. Post-emergence herbicidal effect and crop plant compatibility Seeds of monocotyledonous and dicotyledonous weed and crop plants are laid out in sandy loam soil in wood-fibre pots, covered with soil and cultivated in a greenhouse under good growth conditions. 2 to 3 weeks after sowing, the test plants are treated at the one-leaf stage. The compounds of the invention, formulated in the form of wettable powders (WP) or as emulsion concentrates (EC), are then sprayed onto the green parts of the plants as aqueous suspension or emulsion at a water application rate equating to 600 to 800 l/ha with addition of 0.2% wetting agent. After the test plants have been left to stand in the greenhouse under optimal growth conditions for about 3 weeks, the action of the preparations is assessed visually in comparison to untreated controls (herbicidal action in percent (%): 100% activity=the plants have died, 0% activity=like control plants).
For the molecule `COC(=O)CNC(=O)CSc1nn(-c2ccccc2F)c(-c2ccc(F)c(F)c2)c1Cl` [VII-001], the “Post-emergence action against KCHSC” value came to 90%.
The same measure, in the same setting: under `COC(=O)CNC(=O)CSc1nn(-c2ccccc2F)c(-c2ccccc2)c1Br` [VII-005] stands 100%.

Another assay has as its system Setaria viridis. Description: Post-emergence herbicidal effect against SETVI. The class given is in vivo. The note with it: 1280 g/ha, visual assessment about 3 weeks after treatment, 100% = plants have died, 0% = like control plants. The protocol: as §2
Turning to `COC(=O)CNC(=O)CSc1nn(-c2ccccc2F)c(-c2ccc(F)c(F)c2)c1Cl` [VII-001], the “Post-emergence action against SETVI” value amounted to 90%.
Turning to `COC(=O)CNC(=O)CSc1nn(-c2ccccc2F)c(-c2ccccc2)c1Br` [VII-005], the “Post-emergence action against SETVI” value stood at 100%.

In a further assay the test system is Poa annua. The assay is described as follows: Pre-emergence herbicidal effect against POAAN. The class given is in vivo. Conditions: 1280 g/ha, visual score after 3 weeks, 100% = plants have died, 0% = like control plants.
Excerpt: as §1
On to `Cc1cnsc1-c1c(Br)c(SCC(=O)O)nn1-c1ccccc1F` [Example V-002], for which the “Pre-emergence action against POAAN” value stood at 100%.
In the case of `COC(=O)CNC(=O)CSc1nn(-c2ccccc2F)c(-c2ccc(F)c(F)c2)c1Cl` [VII-001], the “Pre-emergence action against POAAN” value worked out at 100%.
Turning to `COC(=O)CNC(=O)CSc1nn(-c2ccccc2F)c(-c2ccccc2)c1Br` [VII-005], the “Pre-emergence action against POAAN” value is recorded as 100%.

The next assay has as its system Stellaria media. Description: Post-emergence herbicidal effect against STEME. The class given is in vivo. The note with it: 1280 g/ha, visual assessment about 3 weeks after treatment, 100% = plants have died, 0% = like control plants. The protocol:
as §2
Turning to `COC(=O)CNC(=O)CSc1nn(-c2ccccc2F)c(-c2ccc(F)c(F)c2)c1Cl` [VII-001], the “Post-emergence action against STEME” value was determined as 90%.
Consider `COC(=O)CNC(=O)CSc1nn(-c2ccccc2F)c(-c2ccccc2)c1Br` [VII-005], for which the “Post-emergence action against STEME” value is listed as 90%.

The next assay concerns Veronica persica. The assay is described as follows: Post-emergence herbicidal effect against VERPE. The class given is in vivo. The note with it: 1280 g/ha, visual assessment about 3 weeks after treatment, 100% = plants have died, 0% = like control plants. The protocol:
as §2
With `COC(=O)CNC(=O)CSc1nn(-c2ccccc2F)c(-c2ccc(F)c(F)c2)c1Cl` [VII-001], the “Post-emergence action against VERPE” value is on record as 90%.
As for `COC(=O)CNC(=O)CSc1nn(-c2ccccc2F)c(-c2ccccc2)c1Br` [VII-005], the “Post-emergence action against VERPE” value stood at 100%.

A further assay concerns Setaria viridis. Description: Pre-emergence herbicidal effect against SETVI. The class given is in vivo. Conditions: 1280 g/ha, visual score after 3 weeks, 100% = plants have died, 0% = like control plants.
Excerpt: as §1
For `Cc1cnsc1-c1c(Br)c(SCC(=O)O)nn1-c1ccccc1F` [Example V-002], the “Pre-emergence action against SETVI” value is on record as 100%.
For the molecule `COC(=O)CNC(=O)CSc1nn(-c2ccccc2F)c(-c2ccc(F)c(F)c2)c1Cl` [VII-001], the “Pre-emergence action against SETVI” value was 100%.
On the same count and under the same terms, next, `COC(=O)CNC(=O)CSc1nn(-c2ccccc2F)c(-c2ccccc2)c1Br` [VII-005]: 90%.

A further assay deals with Echinochloa crus-galli. The assay is described as follows: Post-emergence herbicidal effect against ECHCG. The class given is in vivo. Conditions: 1280 g/ha, visual score after about 3 weeks, 100% = plants have died, 0% = like control plants. The procedure:
as §2
As to `COC(=O)CNC(=O)CSc1nn(-c2ccccc2F)c(-c2ccc(F)c(F)c2)c1Cl` [VII-001], the “Post-emergence action against ECHCG” value is 100%.
Same read-out and setting: next, `COC(=O)CNC(=O)CSc1nn(-c2ccccc2F)c(-c2ccccc2)c1Br` [VII-005]: 90%.

In a further assay the test system is Abutylon threophrasti. The assay is described as follows: Post-emergence herbicidal effect against ABUTH. The class given is in vivo. Conditions: 1280 g/ha, visual assessment about 3 weeks after treatment, 100% = plants have died, 0% = like control plants. The procedure:
as §2
In the case of `COC(=O)CNC(=O)CSc1nn(-c2ccccc2F)c(-c2ccc(F)c(F)c2)c1Cl` [VII-001], the “Post-emergence action against ABUTH” value was 90%.
`COC(=O)CNC(=O)CSc1nn(-c2ccccc2F)c(-c2ccccc2)c1Br` [VII-005]: the “Post-emergence action against ABUTH” value amounted to 100%.

A further assay concerns Digitaria sanguinalis. The assay is described as follows: Pre-emergence herbicidal effect against DIGSA. The class given is in vivo. Conditions: 1280 g/ha, visual score after 3 weeks, 100% = plants have died, 0% = like control plants.
Excerpt: as §1
As to `COC(=O)CNC(=O)CSc1nn(-c2ccccc2F)c(-c2ccc(F)c(F)c2)c1Cl` [VII-001], the “Pre-emergence action against DIGSA” value is 100%.

In a further assay the test system is Veronica persica. The assay is described as follows: Pre-emergence herbicidal effect against VERPE. Conditions: 1280 g/ha, visual score after 3 weeks, 100% = plants have died, 0% = like control plants. The class given is in vivo.
Excerpt: as §1
With `COC(=O)CNC(=O)CSc1nn(-c2ccccc2F)c(-c2ccc(F)c(F)c2)c1Cl` [VII-001], the “Pre-emergence action against VERPE” value worked out at 100%.
For the molecule `COC(=O)CNC(=O)CSc1nn(-c2ccccc2F)c(-c2ccccc2)c1Br` [VII-005], the “Pre-emergence action against VERPE” value is reported as 100%.

The next assay deals with Echinochloa crus-galli. The assay is described as follows: Pre-emergence herbicidal effect against ECHCG. The note with it: 1280 g/ha, visual score after 3 weeks, 100% = plants have died, 0% = like control plants. The class given is in vivo.
Excerpt: as §1
Turning to `COC(=O)CNC(=O)CSc1nn(-c2ccccc2F)c(-c2ccccc2)c1Br` [VII-005], the “Pre-emergence action against ECHCG” value is on record as 90%.

The next assay relates to Tripleurospermum inodorum. The assay is described as follows: Pre-emergence herbicidal effect against MATIN. Conditions: 1280 g/ha, visual score after 3 weeks, 100% = plants have died, 0% = like control plants. The class given is in vivo.
Excerpt: as §1
For the molecule `Cc1cnsc1-c1c(Br)c(SCC(=O)O)nn1-c1ccccc1F` [Example V-002], the “Pre-emergence action against MATIN” value worked out at 100%.
On to `COC(=O)CNC(=O)CSc1nn(-c2ccccc2F)c(-c2ccc(F)c(F)c2)c1Cl` [VII-001], for which the “Pre-emergence action against MATIN” value is reported as 100%.
Regarding `COC(=O)CNC(=O)CSc1nn(-c2ccccc2F)c(-c2ccccc2)c1Br` [VII-005], the “Pre-emergence action against MATIN” value is on record as 100%.

Another assay concerns Alopecurus myosuroides. The assay is described as follows: Post-emergence herbicidal effect against ALOMY. The class given is in vivo. Conditions: 1280 g/ha, visual score after about 3 weeks, 100% = plants have died, 0% = like control plants. The procedure: as §2
Turning to `COC(=O)CNC(=O)CSc1nn(-c2ccccc2F)c(-c2ccc(F)c(F)c2)c1Cl` [VII-001], the “Post-emergence action against ALOMY” value is recorded as 100%.
Turning to `COC(=O)CNC(=O)CSc1nn(-c2ccccc2F)c(-c2ccccc2)c1Br` [VII-005], the “Post-emergence action against ALOMY” value worked out at 100%.

The next assay has as its system Amaranthus retroflexus. Description: Pre-emergence herbicidal effect against AMARE. The class given is in vivo. The note with it: 1280 g/ha, visual score after 3 weeks, 100% = plants have died, 0% = like control plants.
Excerpt: as §1
With `Cc1cnsc1-c1c(Br)c(SCC(=O)O)nn1-c1ccccc1F` [Example V-002], the “Pre-emergence action against AMARE” value came out at 100%.

For another assay, the system named is Alopecurus myosuroides. The assay is described as follows: Pre-emergence herbicidal effect against ALOMY. The class given is in vivo. Conditions: 1280 g/ha, visual score after 3 weeks, 100% = plants have died, 0% = like control plants.
Excerpt: as §1
As to `COC(=O)CNC(=O)CSc1nn(-c2ccccc2F)c(-c2ccc(F)c(F)c2)c1Cl` [VII-001], the “Pre-emergence action against ALOMY” value was determined as 90%.
Turning to `COC(=O)CNC(=O)CSc1nn(-c2ccccc2F)c(-c2ccccc2)c1Br` [VII-005], the “Pre-emergence action against ALOMY” value is given as 90%.

The test system of the next assay is Poa annua. The assay is described as follows: Post-emergence herbicidal effect against POAAN. The class given is in vivo. The note with it: 1280 g/ha, visual assessment about 3 weeks after treatment, 100% = plants have died, 0% = like control plants. The procedure: as §2
`COC(=O)CNC(=O)CSc1nn(-c2ccccc2F)c(-c2ccc(F)c(F)c2)c1Cl` [VII-001]: the “Post-emergence action against POAAN” value is on record as 100%.
Regarding `COC(=O)CNC(=O)CSc1nn(-c2ccccc2F)c(-c2ccccc2)c1Br` [VII-005], the “Post-emergence action against POAAN” value is 100%.

A further assay relates to Tripleurospermum inodorum. Description: Post-emergence herbicidal effect against MATIN. The class given is in vivo. The note with it: 1280 g/ha, visual assessment about 3 weeks after treatment, 100% = plants have died, 0% = like control plants. The protocol:
as §2
As for `COC(=O)CNC(=O)CSc1nn(-c2ccccc2F)c(-c2ccc(F)c(F)c2)c1Cl` [VII-001], the “Post-emergence action against MATIN” value was 90%.
For `COC(=O)CNC(=O)CSc1nn(-c2ccccc2F)c(-c2ccccc2)c1Br` [VII-005], the “Post-emergence action against MATIN” value is given as 100%.

The subject of another assay is Digitaria sanguinalis. Description: Post-emergence herbicidal effect against DIGSA. The class given is in vivo. The note with it: 1280 g/ha, visual score after about 3 weeks, 100% = plants have died, 0% = like control plants. The procedure:
as §2
Take `COC(=O)CNC(=O)CSc1nn(-c2ccccc2F)c(-c2ccc(F)c(F)c2)c1Cl` [VII-001]: the “Post-emergence action against DIGSA” value is given as 100%.

The subject of a further assay is Lolium rigidum. Description: Pre-emergence herbicidal effect against LOLRI. The class given is in vivo. Conditions: 1280 g/ha, visual score after 3 weeks, 100% = plants have died, 0% = like control plants.
Excerpt: as §1
In the case of `COC(=O)CNC(=O)CSc1nn(-c2ccccc2F)c(-c2ccc(F)c(F)c2)c1Cl` [VII-001], the “Pre-emergence action against LOLRI” value stood at 100%.
In the case of `COC(=O)CNC(=O)CSc1nn(-c2ccccc2F)c(-c2ccccc2)c1Br` [VII-005], the “Pre-emergence action against LOLRI” value was 90%.

The values are drawn from patent publication US20230126893A1, “[(1,4,5-TRISUBSTITUTED-1H-PYRAZOL-3-YL)SULFANYL]ACETIC ACID DERIVATIVES, SALTS THEREOF, AND USE THEREOF AS ACTIVE HERBICIDAL INGREDIENTS” (BAYER AKTIENGESELLSCHAFT, priority 2020, published 2023).
